Patent publication US6815664B2, “Method for separation of particles” (Genoptix, Inc., priority 2001, dated 2004)

Experiments:
[1] = tested on: U937 cells; experiment: Escape velocity of treated and untreated leukemia cells; assay type: cell-based; details: PMA 5 ug/mL, 37° C., treated for 6 hours
Source text: Separation By Refractive Index—Polystyrene, polymethylmethacrylate and silica particles of similar size (˜5 micrometer diameter, Bangs Labs) and refractive indexes of 1.59, 1.49 and 1.37, respectively, were sorted by moving optical gradient fields. Observed escape velocities for polystyrene, PMMA and silica were 44, 47 and 32 micrometers/second, respectively. Briefly, a particle is aligned in the fringe and the fringes are moved at increasing speed until the particle slips. […] It will be appreciated by those skilled in the art that the absolute value of the escape velocity will differ depending upon system conditions, e.g., laser power. The numerical results provided herein are meant to provide measured data for the system actually used, and are not to be considered a limitation on the values which might exist in a different system.
PMA was dissolved in ethanol at a concentration of 5 mg/mL. 3 mls of U937 cells grown in RPMI 1640 media with supplements were removed from the culture flask and 1 ml was placed into each of three eppendorf tubes. Cells from the first tube were pelleted for 4 minutes at 10,000 rpm and resuspended in 250 uL PBS/1% BSA buffer for escape velocity measurements. PMA was added to the remaining two tubes of U937 cells to a final concentration of 5 ug/mL. These tubes were vortexed and placed in a 37° C. water bath for either one hour or six hours. […]

[2] = tested on: K562 Cells; experiment: Escape velocity of cells in a moving optical gradient field (1064 system, CYTOP coated coverslips); assay type: cell-based; details: K562 cells (chronic myelogenous leukemia, lymphoblast), 26 Hr. Taxol treatment; untreated K562 10.0 +/− 0.7
Source text: Certain of the data reported herein were generated with the following setup. Optical gradient fields were generated using a Michelson interferometer and either a 150 mW, 812 nm laser (812 system) or a 2.5 W, 1064 nm laser (1064 system). The 812 system used a 100× (1.25 NA) oil immersion lens to focus the fringe pattern and to visualize the sample. The 1064 system used a 20× objective to focus the fringes and a 60× objective to visualize the sample. In general the sample cell was a coated microscope slide and/or coverslip that was sealed with Vaseline. Coverslip spacers controlled the height of the cell at approximately 150 micrometers
Separation By Refractive Index—Polystyrene, polymethylmethacrylate and silica particles of similar size (˜5 micrometer diameter, Bangs Labs) and refractive indexes of 1.59, 1.49 and 1.37, respectively, were sorted by moving optical gradient fields. Observed escape velocities for polystyrene, PMMA and silica were 44, 47 and 32 micrometers/second, respectively. […] The numerical results provided herein are meant to provide measured data for the system actually used, and are not to be considered a limitation on the values which might exist in a different system.
Escape velocities were measured using a gradient field generated by the 1064 system on CYTOP coated coverslips.

SMILES: CCCCCCCCCCCCCC(=O)O[C@@H]1[C@@H](C)[C@@]2(O)[C@@H](C=C(CO)C[C@]3(O)C(=O)C(C)=C[C@@H]23)[C@@H]2C(C)(C)[C@]12OC(C)=O [PMA]
- escape velocity as compared to the untreated cells [1]: significantly higher escape velocity

SMILES: CC(=O)O[C@H]1C(=O)[C@@]2(C)[C@H]([C@H](OC(=O)c3ccccc3)[C@]3(O)C[C@H](OC(=O)[C@H](O)[C@@H](NC(=O)c4ccccc4)c4ccccc4)C(C)=C1C3(C)C)[C@]1(OC(C)=O)CO[C@@H]1C[C@@H]2O [Taxol]
- Escape Velocity [2]: 8.2 +/− 0.4 um/sec.
